Data: patent US9296720B2, “Carboxamide-substituted heteroaryl-pyrazoles and the use thereof” (AiCuris GmbH & Co. KG, priority 2011, dated 2016)
Where two headings read alike, the source gives them in different places.

Legend:
Type in all cases: cell-based
[1] = system: HIV-1NL4-3 Wild Type; experiment: Luminescence reduction assay, MT4 cells infected with HIV-1NL4-3 luciferase reporter virus, wild type; conditions: 2% FCS
Outline: (§1)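 Compound dilution series in 1% DMSO, with 2% or 10% FCS, incubated 5 days at 37° C/5% CO2 with MT4 cells previously pellet-infected (2 h) by luciferase reporter NL4-3 virus, wild type or carrying RT resistance mutations. EC50 taken where luminescence from secreted luciferase falls to 50% of untreated infected control.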

[2] = system: HIV-1NL4-3 K103N-Y181C; experiment: Luminescence reduction assay, MT4 cells infected with HIV-1NL4-3 luciferase reporter virus, RT mutant K103N-Y181C
Outline: as §1

[3] = system: HIV-1LAI Wild Type; experiment: AlamarBlue viability assay, HIV-1LAI-infected MT4 cells; conditions: 10% FCS
Outline: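 MT4 cells infected with HIV-1LAI (MOI 0.01, supernatant infection) cultured 5 days at 37 °C with compounds in RPMI with 2% or 10% FCS, 1% DMSO final. AlamarBlue fluorescence after 3 h; EC50 as 50% protection relative to uninfected cells, CC50 from high-concentration cytotoxicity.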

[4] = Human immunodeficiency virus 1, MT4, MT4 cells
[5] = Human immunodeficiency virus 1, MT4, read-out: EC50 (μM) MT4 Cells HIV-1NL4-3 K103N-Y181C 2% FCS, MT4 cells, HIV-1NL4-3 K103N-Y181C, 2% FCS
[6] = read-out: EC50 (μM) MT4 Cells HIV-1NL4-3 K103N-Y181C 2% FCS, MT4 cells, HIV-1NL4-3 K103N-Y181C, 2% FCS

For `O=C1CN(C(=O)c2cc(-c3cc(Br)cc(OC(F)(F)F)c3)n(-c3ccc(F)nc3)n2)CCN1` [Example 40, 4-({5-[3-Bromo-5-(trifluoromethoxy)phenyl]-1-(6-fluoropyridin-3-yl)-1H-pyrazol-3-yl}carbonyl)piperazin-2-one], the EC50 [1, 4] was 0.013 µM, the EC50 [2, 5] was 0.044 µM and the EC50 [3, 4] was 0.213 µM.

In the case of `O=C(c1cc(-c2cc(Br)cc(OC(F)(F)F)c2)n(-c2cccnc2)n1)N1CC[S+]([O-])C1` (racemic) [Example 31-2, {5-[3-Bromo-5-(trifluoromethoxy)phenyl]-1-(pyridin-3-yl)-1H-pyrazol-3-yl}(1-oxido-1,3-thiazolidin-3-yl)methanone], the EC50 ([1]; MT4 cells) is reported as 0.01 µM, the EC50 [2, 6] is reported as 0.041 µM and the EC50 ([3]; MT4 cells) is reported as 0.336 µM.

With `O=C1CN(C(=O)c2cc(-c3cncc(Cl)c3)n(-c3ccc(F)c(Cl)c3)n2)CCN1` [Example 101, 4-{[1-(3-Chloro-4-fluorophenyl)-5-(5-chloropyridin-3-yl)-1H-pyrazol-3-yl]carbonyl}piperazin-2-one] the EC50 [1, 4] was 0.016 µM, the EC50 [2, 5] was 0.088 µM and the EC50 [3, 4] was 0.034 µM.

`O=C(c1cc(-c2cc(F)cc(OC(F)(F)F)c2)n(-c2cccnc2)n1)N1CC[S+]([O-])C1` (racemic) [Example 60-1, {5-[3-Fluoro-5-(trifluoromethoxy)phenyl]-1-(pyridin-3-yl)-1H-pyrazol-3-yl}(1-oxido-1,3-thiazolidin-3-yl)methanone] was tested, and the EC50 ([1]; MT4 cells) was 0.431 µM, the EC50 [2, 6] was > 3.3 µM and the EC50 ([3]; MT4 cells) was > 3.3 µM.

In the case of `O=C1CN(C(=O)c2cc(-c3cc(F)cc(OCC(F)(F)F)c3)n(-c3cccnc3)n2)CCN1` [Example 71, 4-({5-[3-Fluoro-5-(2,2,2-trifluoroethoxy)phenyl]-1-(pyridin-3-yl)-1H-pyrazol-3-yl}carbonyl)piperazin-2-one], the EC50 [1, 4] is reported as 0.013 µM, the EC50 [2, 5] is reported as > 3.3 µM and the EC50 [3, 4] is reported as 0.246 µM.

For `O=C1CN(C(=O)c2cc(-c3cc(F)cc(OC(F)(F)F)c3)n(-c3ccnc(Cl)c3)n2)CN1` [Example 62, 1-({1-(2-Chloropyridin-4-yl)-5-[3-fluoro-5-(trifluoromethoxy)phenyl]-1H-pyrazol-3-yl}carbonyl)imidazolidin-4-one], the EC50 [1, 4] was 0.044 µM, the EC50 [2, 5] was 0.066 µM and the EC50 [3, 4] was 0.352 µM.

For `O=C(c1cc(-c2cc(F)cc(Cl)c2)n(-c2ccnc(C(F)(F)F)c2)n1)N1CCS(=O)(=O)C1` [Example 20, {5-(3-Chloro-5-fluorophenyl)-1-[2-(trifluoromethyl)pyridin-4-yl]-1H-pyrazol-3-yl}(1,1-dioxido-1,3-thiazolidin-3-yl)methanone], the EC50 [1, 4] was 0.162 µM, the EC50 [2, 5] was 1.39 µM and the EC50 [3, 4] was 1.46 µM.

With `O=C1CN(C(=O)c2cc(-c3cc(F)cc(OCC(F)(F)F)c3)n(-c3cccnc3)n2)CN1` [Example 70, 1-({5-[3-Fluoro-5-(2,2,2-trifluoroethoxy)phenyl]-1-(pyridin-3-yl)-1H-pyrazol-3-yl}carbonyl)imidazolidin-4-one] the EC50 [1, 4] was < 0.002 µM, the EC50 [2, 5] was 0.315 µM and the EC50 [3, 4] was 0.034 µM.

`O=C1CN(C(=O)c2cc(-c3cc(F)cc(Br)c3)n(-c3cccnc3)n2)CN1` [Example 90, 1-{[5-(3-Bromo-5-fluorophenyl)-1-(pyridin-3-yl)-1H-pyrazol-3-yl]carbonyl}imidazolidin-4-one] gave an EC50 [1, 4] of 0.003 µM, an EC50 [2, 5] of 0.033 µM and an EC50 [3, 4] of 0.011 µM.

With `O=C(c1cc(-c2cc(F)cc(OC(F)(F)F)c2)n(-c2ccnc(Cl)c2)n1)N1CCSC1` [Example 104, {1-(2-Chloropyridin-4-yl)-5-[3-fluoro-5-(trifluoromethoxy)phenyl]-1H-pyrazol-3-yl}(1,3-thiazolidin-3-yl)methanone] the EC50 [1, 4] was 0.58 µM, the EC50 [2, 5] was ≥ 3.3 µM and the EC50 [3, 4] was > 3.3 µM.

With `O=C(c1cc(-c2cc(F)cc(OCC(F)(F)F)c2)n(-c2cccnc2)n1)N1CCS(=O)(=O)C1` [Example 74, (1,1-Dioxido-1,3-thiazolidin-3-yl) {5-[3-fluoro-5-(2,2,2-trifluoroethoxy)phenyl]-1-(pyridin-3-yl)-1H-pyrazol-3-yl}methanone] the EC50 [1, 4] was 0.004 µM, the EC50 [2, 5] was 0.302 µM and the EC50 [3, 4] was 0.066 µM.

`COc1cc(Br)cc(-c2cc(C(=O)N3CCNC(=O)C3)nn2-c2ccnc(Cl)c2)c1` [Example 97, 4-{[5-(3-Bromo-5-methoxyphenyl)-1-(2-chloropyridin-4-yl)-1H-pyrazol-3-yl]carbonyl}piperazin-2-one] was tested, and the EC50 [1, 4] was 0.013 µM, the EC50 [2, 5] was 0.116 µM and the EC50 [3, 4] was 0.068 µM.

`O=C(c1cc(-c2cc(Cl)cc(OC(F)(F)F)c2)n(-c2ccc[n+](O)c2)n1)N1CCS(=O)(=O)C1` [Example 80, {5-[3-Chloro-5-(trifluoromethoxy)phenyl]-1-(1-oxidopyridin-3-yl)-1H-pyrazol-3-yl}(1,1-dioxido-1,3-thiazolidin-3-yl)methanone] was tested, and the EC50 [1, 4] was 0.164 µM, the EC50 [2, 5] was 0.075 µM and the EC50 [3, 4] was 2.79 µM.

Work on `O=C1CN(C(=O)c2cc(-c3cc(Br)cc(OC(F)(F)F)c3)n(-c3ccc(Cl)nc3)n2)CN1` [Example 34, 1-({5-[3-Bromo-5-(trifluoromethoxy)phenyl]-1-(6-chloropyridin-3-yl)-1H-pyrazol-3-yl}carbonyl)imidazolidin-4-one] yielded an EC50 [1, 4] of 0.01 µM, an EC50 [2, 5] of 0.003 µM and an EC50 [3, 4] of 0.098 µM.

`Cc1cc(-n2nc(C(=O)N3CNC(=O)C3)cc2-c2cc(Br)cc(OC(F)(F)F)c2)ccn1` [Example 53, 1-({5-[3-Bromo-5-(trifluoromethoxy)phenyl]-1-(2-methylpyridin-4-yl)-1H-pyrazol-3-yl}carbonyl)imidazolidin-4-one] was tested, and the EC50 [1, 4] was 0.023 µM, the EC50 [2, 5] was 0.008 µM and the EC50 [3, 4] was 0.302 µM.

With `O=C1CN(C(=O)c2cc(-c3cc(F)cc(Cl)c3)n(-c3ccccn3)n2)CN1` [Example 1, 1-{[5-(3-Chloro-5-fluorophenyl)-1-(pyridin-2-yl)-1H-pyrazol-3-yl]carbonyl}imidazolidin-4-one] the EC50 [1, 4] was 0.345 µM, the EC50 [2, 5] was > 3.3 µM and the EC50 [3, 4] was > 3.3 µM.

In the case of `O=C(c1cc(-c2cc(F)cc(OC(F)(F)F)c2)n(-c2cccnc2)n1)N1CC[S+]([O-])C1` (racemic) [Example 60-2, {5-[3-Fluoro-5-(trifluoromethoxy)phenyl]-1-(pyridin-3-yl)-1H-pyrazol-3-yl}(1-oxido-1,3-thiazolidin-3-yl)methanone], the EC50 ([1]; MT4 cells) is reported as 0.084 µM, the EC50 [2, 6] is reported as 0.446 µM and the EC50 ([3]; MT4 cells) is reported as 0.797 µM.

In the case of `COc1cc(-n2nc(C(=O)N3CNC(=O)C3)cc2-c2cc(F)cc(Cl)c2)ccn1` [Example 25, 1-{[5-(3-Chloro-5-fluorophenyl)-1-(2-methoxypyridin-4-yl)-1H-pyrazol-3-yl]carbonyl}imidazolidin-4-one], the EC50 [1, 4] is reported as 0.004 µM, the EC50 [2, 5] is reported as 0.04 µM and the EC50 [3, 4] is reported as 0.011 µM.

With `O=C1CN(C(=O)c2cc(-c3cc(F)cc(Cl)c3)n(-c3cccnc3)n2)CCN1` [Example 4, 4-{[5-(3-Chloro-5-fluorophenyl)-1-(pyridin-3-yl)-1H-pyrazol-3-yl]carbonyl}piperazin-2-one] the EC50 [1, 4] was 0.036 µM, the EC50 [2, 5] was 0.132 µM and the EC50 [3, 4] was 0.108 µM.

Compound `O=C(c1cc(-c2cc(Br)cc(OC(F)(F)F)c2)n(-c2ccc(Cl)nc2)n1)N1CCS(=O)(=O)C1` [Example 38, {5-[3-Bromo-5-(trifluoromethoxy)phenyl]-1-(6-chloropyridin-3-yl)-1H-pyrazol-3-yl}(1,1-dioxido-1,3-thiazolidin-3-yl)methanone] has an EC50 [1, 4] of 0.023 µM, an EC50 [2, 5] of 0.007 µM and an EC50 [3, 4] of 1.22 µM.

Compound `O=C1CN(C(=O)c2cc(-c3cc(F)cc(Cl)c3)n(-c3ccncc3)n2)CN1` [Example 13, 1-{[5-(3-Chloro-5-fluorophenyl)-1-(pyridin-4-yl)-1H-pyrazol-3-yl]carbonyl}imidazolidin-4-one] has an EC50 [1, 4] of 0.323 µM, an EC50 [2, 5] of 0.88 µM and an EC50 [3, 4] of 1.34 µM.

Compound `O=C1CN(C(=O)c2cc(-c3cc(F)cc(Cl)c3)n(-c3ccnc(C(F)(F)F)c3)n2)CN1` [Example 16, 1-({5-(3-Chloro-5-fluorophenyl)-1-[2-(trifluoromethyl)pyridin-4-yl]-1H-pyrazol-3-yl}carbonyl)imidazolidin-4-one] has an EC50 [1, 4] of 0.055 µM, an EC50 [2, 5] of 0.339 µM and an EC50 [3, 4] of 0.49 µM.

`O=C(c1cc(-c2cc(Br)cc(OC(F)(F)F)c2)n(-c2cccnc2)n1)N1CCS(=O)(=O)C1` [Example 32, {5-[3-Bromo-5-(trifluoromethoxy)phenyl]-1-(pyridin-3-yl)-1H-pyrazol-3-yl}(1,1-dioxido-1,3-thiazolidin-3-yl)methanone] gave an EC50 [1, 4] of 0.007 µM, an EC50 [2, 5] of 0.014 µM and an EC50 [3, 4] of 0.083 µM.

`O=C1CN(C(=O)c2cc(-c3cc(Br)cc(OC(F)(F)F)c3)n(-c3ccnc(Cl)c3)n2)CN1` [Example 48, 1-({5-[3-Bromo-5-(trifluoromethoxy)phenyl]-1-(2-chloropyridin-4-yl)-1H-pyrazol-3-yl}carbonyl)imidazolidin-4-one] gave an EC50 [1, 4] of 0.01 µM, an EC50 [2, 5] of 0.007 µM and an EC50 [3, 4] of 0.111 µM.

Compound `O=C(c1cc(-c2cc(F)cc(Cl)c2)n(-c2cccnc2)n1)N1CC[S+]([O-])C1` (racemic) [Example 6-2, [5-(3-Chloro-5-fluorophenyl)-1-(pyridin-3-yl)-1H-pyrazol-3-yl](1-oxido-1,3-thiazolidin-3-yl)methanone] has an EC50 ([1]; MT4 cells) of 0.007 µM, an EC50 [2, 6] of 0.986 µM and an EC50 ([3]; MT4 cells) of 0.112 µM.

Compound `O=C1CN(C(=O)c2cc(-c3cncc(Cl)c3)n(-c3ccc(F)c(Cl)c3)n2)CN1` [Example 100, 1-{[1-(3-Chloro-4-fluorophenyl)-5-(5-chloropyridin-3-yl)-1H-pyrazol-3-yl]carbonyl}imidazolidin-4-one] has an EC50 [1, 4] of 0.005 µM, an EC50 [2, 5] of 0.009 µM and an EC50 [3, 4] of 0.01 µM.
